Experimental data from patent US8299107B2, “Triazole compounds that modulate HSP90 activity” (Synta Pharmaceuticals Corporation, priority 2007, dated 2012).

Test system: Her2
Experiment: Degradation of Her2 in BT-474 cells, Western blot (Method 1)
Format: cell-based, human
Conditions: 0.5 μM, overnight, positive control
Description: Human high-Her2 breast carcinoma BT474 (HTB-20), SK-BR-3 (HTB-30) and MCF-7 breast carcinoma (HTB-22) from American Type Culture Collection, VA, USA were grown in Dulbecco's modified Eagle's medium with 4 mM L-glutamine and antibiotics (100 IU/ml penicillin and 100 ug/ml streptomycine; GibcoBRL). To obtain exponential cell growth; cells were trypsinized, counted and seeded at a cell density of 0.5×10^6 cells/ml regularly, every 3 days. All experiments were performed on day 1 after cell passage.
BT-474 cells are treated with 0.5 μM, 2 μM, or 5 μM of 17AAG (a positive control) or 0.5 μM, 2 μM, or 5 μM of a compound of the invention overnight in DMEM medium. After treatment, each cytoplasmic sample is prepared from 1×10^6 cells by incubation of cell lysis buffer (#9803, cell Signaling Technology) on ice for 10 minutes. The resulting supernatant used as the cytosol fractions is dissolved with sample buffer for SDS-PAGE and run on a SDS-PAGE gel, blotted onto a nitrocellulose membrane by using semi-dry transfer. Non-specific binding to nitrocellulose is blocked with 5% skim milk in TBS with 0.5% Tween at room temperature for 1 hour, then probed with anti-Her2/ErB2 mAb (rabbit IgG, #2242, Cell Signaling) and anti-Tubulin (T9026, Sigma) as housekeeping control protein. […]

## C=CCNC1=C2C[C@@H](C)C[C@H](OC)[C@H](O)[C@@H](C)/C=C(\C)[C@H](OC(N)=O)[C@@H](OC)/C=C\C=C(/C)C(=O)NC(=CC1=O)C2=O [Compound 17AAG, 17-allylamino-17-demethoxygeldanamycin]
  degradation of Her2: partial degradation of Her2
